Measured values from patent US5880134A, “Method for using ergoline compounds to effect physiological and pathological functions at the 5-HT7 receptor” (Eli Lilly and Company, priority 1997, dated 1999).

Experiments:
human 5-HT7 receptor [1] = biological target: T1, human 5-HT7 receptor (Homo sapiens, UniProt P34969); details: cited from earlier work; for pharmacological profile (rank order of affinity): human 5-HT7, [3H]5-HT competition
rat 5-HT7 receptor = details: cited from earlier work; for pharmacological profile (rank order of affinity): rat 5-HT7, [125I]LSD and [3H]5-HT
[2] = biological target: T2, 5-HT7 receptor in the dog coronary artery (Canis lupus familiaris, UniProt A0A8I3S709); assay: 5-HT-induced relaxation of endothelium-denuded canine coronary artery rings precontracted with PGF2α (Schild / dissociation constant analysis); type: cell-based; details: for relaxant activity in canine coronary artery: agonist; for pEC50 values between vehicle and compound-treated tissues: 1 μM, p<0.05, Student's t-test; for blockade of 5-HT-induced relaxation: compounds III and V 1 μM, compound IV 10-100 nM, 1 hr incubation; for slope of the Schild regression: Schild plot; for slope: Table 2, Schild regression
T2 construct: The left anterior descending and circumflex coronary arteries were dissected from the hearts; from tissue; host or cells: dog left anterior descending and circumflex coronary artery rings (mongrel dogs), endothelium removed
Description: (§1) Hearts were obtained from mongrel dogs anesthetized with sodium pentobarbital (30 mg/kg, i.v.) and placed in oxygenated modified Krebs' solution of the following composition (millimolar): NaCl, 118; KCl, 4.6; CaCl2, 1.6; KH2 PO4, 1.2; MgSO4 1.2, glucose, 10; NaHCO3 24.8 (pH 7.4). The left anterior descending and circumflex coronary arteries were dissected from the hearts, cleaned of fat and adhering tissue and cut into rings (approximately 2-3 mm outer diameter and 4-5 mm in length). The intimal surface of the rings was gently rubbed with a pair of forceps to remove the endothelium. Tissues were then mounted between two stainless steel hooks and placed in 10 ml organ chambers constantly exposed to oxygenated modified Krebs' solution (95% O2 /5% CO2; pH 7.4; 37° C.). Tissues were equilibrated for 1 hour under an initial optimal passive force of 4 g determined previously from length-tension experiments. The buffer was replaced every 15 minutes during equilibration. Isometric force was measured with Statham UC3 force transducers connected to a Beckman dynograph (R611). After 1 hr equilibration, tissues were depolarized twice with 50 mM KCl for 30 min with a 20 min washing period between. The integrity of the endothelium was examined with acetylcholine (1 μM), bradykinin (100 nM), or the ionophore A23187 (1 μM). Rings that relaxed to these agents were not used in this study.
(§2) Cumulative concentration-response curves to 5-HT were generated in tissues incubated with either vehicle or antagonist for 1 hr. In some experiments contraction was measured in tissues under basal tone upon the cumulative addition of 5-HT. These tissues were treated with prazosin (1 μM) to block any potential a adrenoceptor activation and in the absence or presence of antagonist.
(§3) All results are expressed as mean ±S.E. where "n" represents the number of rings examined. No more than two rings were used from each animal for each compound studied. The relaxation data is expressed as percent relaxation of the contraction produced by PGF2α. The contraction data is expressed as percent of a maximal KCl (50 mM) contraction. The EC50 was the concentration of the agonist producing half-maximal response and was determined by least squares linear regression analysis of the linear portion or the agonist concentration-response curve and expressed as -log C50 (pEC50)
Apparent antagonist dissociation constants (KB) were determined for each antagonist according to the following equation: [formula] where (B) is the concentration of the antagonist and dose ratio is the EC50 of the agonist in the presence of the antagonist divided by the EC50 of the agonist in vehicle treated tissues. […] Significant differences between vehicle and antagonist treated tissues were determined with Student's t-test. The alpha value was set a priori at 0.05.
The data was also analyzed in accord with the procedure of Arunlakshana and Schild (1959). The dose ratio was determined at various concentrations of antagonist compound II or compound IV. If blockade is competitive under equilibrium conditions a plot of the logarithm (dose ratio--1) against the negative logarithm of the molar concentration of antagonist should yield a straight line whose slope is not different from unity and whose intercept on the abscissa is the pA2, which is generally considered to be equivalent to -log KB.

[3] = tested on: contractile 5-HT receptor in the canine coronary artery; assay: Contraction of endothelium-denuded canine coronary artery under basal tone; type: cell-based
Description: as §1
as §2, with “Tissues prepared as described in Example 1 were precontracted with PGF2α (10 μM) which produced a tonic contraction that remained at or above 92.8±2.1% (n=14) of the original maximum force throughout the experiment. Cumulative” for “Cumulative”
as §3

[4] = tested on: contractile 5-HT receptor in the canine coronary artery; details: agonist alone, vessels under basal tone, as previously reported (Cushing et al.); cited from earlier work
[5] = Bioavailability after oral administration in rats; type: in vivo, rat
human 5-HT7 receptor [6] = biological target: T1, human 5-HT7 receptor; assay: Receptor binding at the human 5-HT7 receptor
From the text: The general chemical structure for three particularly useful compounds of the invention (compounds III-V) are shown below: [drawing 3]
The KD and --logKB value for compound II, a known 5-HT7 antagonist, and two compounds employed by the present invention, compound III and IV, are shown in Table 1.

5-HT7 receptor = details: expressed in mammalian cells; cited from earlier work
[7] = compared with ester compounds II and V

T1 sequence (P34969 1-445 isoform P34969-2): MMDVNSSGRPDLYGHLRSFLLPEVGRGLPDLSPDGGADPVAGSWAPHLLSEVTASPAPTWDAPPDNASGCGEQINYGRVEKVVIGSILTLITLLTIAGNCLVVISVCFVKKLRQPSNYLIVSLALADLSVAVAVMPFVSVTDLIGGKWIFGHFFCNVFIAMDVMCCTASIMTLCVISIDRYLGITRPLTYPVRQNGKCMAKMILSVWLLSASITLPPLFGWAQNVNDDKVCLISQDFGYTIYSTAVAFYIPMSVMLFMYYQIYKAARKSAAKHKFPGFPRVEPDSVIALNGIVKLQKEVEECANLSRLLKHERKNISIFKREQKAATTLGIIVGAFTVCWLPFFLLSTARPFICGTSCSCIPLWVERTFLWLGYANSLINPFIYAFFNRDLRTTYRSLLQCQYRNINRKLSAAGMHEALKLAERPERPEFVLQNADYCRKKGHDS
T2 sequence (A0A8I3S709 1-435): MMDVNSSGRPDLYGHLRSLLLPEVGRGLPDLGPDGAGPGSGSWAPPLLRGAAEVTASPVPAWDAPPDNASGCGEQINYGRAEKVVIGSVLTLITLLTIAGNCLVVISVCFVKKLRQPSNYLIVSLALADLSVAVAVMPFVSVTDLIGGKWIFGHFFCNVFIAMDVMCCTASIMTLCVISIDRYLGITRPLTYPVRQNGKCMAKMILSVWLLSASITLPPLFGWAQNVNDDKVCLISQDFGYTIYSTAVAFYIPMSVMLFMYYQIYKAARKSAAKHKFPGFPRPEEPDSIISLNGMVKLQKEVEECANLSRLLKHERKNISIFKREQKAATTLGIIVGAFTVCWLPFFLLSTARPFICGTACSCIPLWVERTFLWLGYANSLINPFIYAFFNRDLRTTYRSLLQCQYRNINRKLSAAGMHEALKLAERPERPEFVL

## CCCN(CCC)C1CCc2cccc(O)c2C1 (stereo not shown) [8-OH DPAT, 8-hydroxy-2-(di-n-propyl-amino)-tetralin]
Human 5-HT7 receptor [1]
  pharmacological profile (rank order of affinity): 5CT>5 MeOT≥5HT>8-OH DPAT
Rat 5-HT7 receptor
  pharmacological profile (rank order of affinity): 5CT>5MeOT≥5HT>8-OH-DPAT

## NCCc1c[nH]c2ccc(C(N)=O)cc12 [Compound 5-CT, 5-carboxamidotryptamine]
Human 5-HT7 receptor [1]
  pharmacological profile (rank order of affinity): 5CT>5 MeOT≥5HT>8-OH DPAT
Human 5-HT7 receptor [1]; human 5-HT7
  affinity of 5CT over serotonin: greater affinity of 5CT over serotonin
[2]
  relaxant activity in canine coronary artery: potent relaxant agonist
  affinity of canine coronary artery relaxant receptor for 5CT versus serotonin: highest affinity for 5-HT7 receptors
[2]; listed as 5CT
  affinity of canine coronary artery relaxant receptor for 5CT versus serotonin: greater affinity for 5CT than for the endogenous agonist serotonin
[3]; agonist alone, under basal tone or precontracted
  contraction by agonist: did not significantly contract coronary arteries
[3]; compound IV 1 μM, basal tone
  contraction by agonist in the presence of compound IV: concentration-dependently contracted canine coronary artery
Rat 5-HT7 receptor
  pharmacological profile (rank order of affinity): 5CT>5MeOT≥5HT>8-OH-DPAT
Rat 5-HT7 receptor; rat 5-HT7
  binding affinity of 5CT over serotonin: higher binding affinity of 5CT over serotonin

## NCCc1c[nH]c2ccc(O)cc12 [Compound 5-HT, 5-hydroxytryptamine]
Human 5-HT7 receptor [1]
  pharmacological profile (rank order of affinity): 5CT>5 MeOT≥5HT>8-OH DPAT
[4]
  contractile response of agonist: produced a biphasic contractile response
Rat 5-HT7 receptor
  pharmacological profile (rank order of affinity): 5CT>5MeOT≥5HT>8-OH-DPAT

## COc1ccc2[nH]cc(CCN)c2c1 [Compound 5-MeOT, 5-methoxytryptamine]
Human 5-HT7 receptor [1]
  pharmacological profile (rank order of affinity): 5CT>5 MeOT≥5HT>8-OH DPAT
[4]
  contractile response of agonist: produced a biphasic contractile response
Rat 5-HT7 receptor
  pharmacological profile (rank order of affinity): 5CT>5MeOT≥5HT>8-OH-DPAT

## CC(C)n1cc2c3c(cccc31)C1CC(C(=O)NC3CCCCC3)CN(C)C1C2 (stereo not shown) [Compound III]
[5]; [7]
  bioavailability: greater bioavailability than the ester compounds II and V
[2]
  Kb: 0.2 µM
  pEC50 values between vehicle and compound-treated tissues: significantly different
[2]; compound II 0.3-10 μM
  blockade of 5-HT-induced relaxation: blocked 5-HT-induced relaxation in endothelium-denuded canine coronary artery rings in a competitive manner
Human 5-HT7 receptor [6]
  binding affinity to the human 5-HT7 receptor (in words): high binding affinity

## CC(O)C(C)OC(=O)C1CC2c3cccc4c3c(cn4C(C)C)CC2N(C)C1 (stereo not shown) [Compound II]
[2]
  Kb: 0.316 µM
  slope of the Schild regression: 0.92
  slope: 0.92
[2]; FIG. 1 lower panel
  Schild slope versus unity: not significantly different from unity
[2]; compound II 0.3-10 μM
  maximum relaxant response to 5-HT: did not alter the maximum relaxant response
  blockade of 5-HT-induced relaxation: shifted the concentration-response curve to 5-HT significantly to the right

## CC(C)n1cc2c3c(cccc31)C1CC(C(=O)NC3CCCC3O)CN(C)C1C2 (stereo not shown) [Compound IV]
[5]; [7]
  bioavailability: greater bioavailability than the ester compounds II and V
[2]
  Kb: 0.00501 µM
  slope of the Schild regression: 0.98
  slope: 0.98
[2]; compound II 0.3-10 μM
  blockade of 5-HT-induced relaxation: blocked 5-HT-induced relaxation in endothelium-denuded canine coronary artery rings in a competitive manner
[3]; 1 μM, basal tone
  effect on contractile response produced by 5-HT and 5-MeOT: not affecting the contractile response
  effect on relaxant phase of 5-HT and 5-MeOT response: significantly attenuated the relaxant phase
[3]; 1 μM, basal tone, FIG. 7
  effect on sumatriptan-induced contraction: did not significantly affect sumatriptan-induced contraction
Human 5-HT7 receptor [6]
  binding affinity to the human 5-HT7 receptor (in words): high binding affinity

## COC1CCC(OC(=O)C2CC3c4cccc5c4c(cn5C(C)C)CC3N(C)C2)CC1 (stereo not shown) [Compound V]
[5]; compared with compound II
  bioavailability: higher bioavailability than compound II
[2]
  Kb: 0.398 µM
  pEC50 values between vehicle and compound-treated tissues: significantly different
[2]; compound II 0.3-10 μM
  blockade of 5-HT-induced relaxation: blocked 5-HT-induced relaxation in an apparently competitive manner

## CCCCC[C@H](O)/C=C/[C@@H]1[C@@H](C/C=C\CCCC(=O)O)[C@@H](O)C[C@H]1O [PGF2α]
[2]; PGF2α 10 μM, of the original maximum force, n=14
  contraction retained throughout the experiment: ≥ 92.8±2.1%

## CN(C)CCC=C1c2ccccc2CCc2ccccc21 [amitriptyline]
5-HT7 receptor
  affinity for the 5-HT7 receptor: high affinity

## CN1CCN(C2=Nc3cc(Cl)ccc3Nc3ccccc32)CC1 [clozapine]
5-HT7 receptor
  affinity for the 5-HT7 receptor: high affinity

## CN1CCN(C2=Nc3ccccc3Oc3ccc(Cl)cc32)CC1 [loxapine]
5-HT7 receptor
  affinity for the 5-HT7 receptor: high affinity

## CNS(=O)(=O)Cc1ccc2[nH]cc(CCN(C)C)c2c1 [sumatriptan]
[2]
  relaxant activity in canine coronary artery: lacking relaxant activity
